In publication PMC11470957, “Principles of paralog-specific targeted protein degradation engaging the C-degron E3 KLHDC2” (Nature Communications, 2024):
Values joined by “and” are separate entries in the source; they are usually repeats but may differ in a detail not shown here. Equal entries are not always repeated. Where two headings read alike, the source gives them in different places.

Target: BRD3 (Homo sapiens, UniProt Q15059)
Assay: Western blot of BRD3 levels after cellular dosing

Chain of BRD3 (Q15059 whole entry): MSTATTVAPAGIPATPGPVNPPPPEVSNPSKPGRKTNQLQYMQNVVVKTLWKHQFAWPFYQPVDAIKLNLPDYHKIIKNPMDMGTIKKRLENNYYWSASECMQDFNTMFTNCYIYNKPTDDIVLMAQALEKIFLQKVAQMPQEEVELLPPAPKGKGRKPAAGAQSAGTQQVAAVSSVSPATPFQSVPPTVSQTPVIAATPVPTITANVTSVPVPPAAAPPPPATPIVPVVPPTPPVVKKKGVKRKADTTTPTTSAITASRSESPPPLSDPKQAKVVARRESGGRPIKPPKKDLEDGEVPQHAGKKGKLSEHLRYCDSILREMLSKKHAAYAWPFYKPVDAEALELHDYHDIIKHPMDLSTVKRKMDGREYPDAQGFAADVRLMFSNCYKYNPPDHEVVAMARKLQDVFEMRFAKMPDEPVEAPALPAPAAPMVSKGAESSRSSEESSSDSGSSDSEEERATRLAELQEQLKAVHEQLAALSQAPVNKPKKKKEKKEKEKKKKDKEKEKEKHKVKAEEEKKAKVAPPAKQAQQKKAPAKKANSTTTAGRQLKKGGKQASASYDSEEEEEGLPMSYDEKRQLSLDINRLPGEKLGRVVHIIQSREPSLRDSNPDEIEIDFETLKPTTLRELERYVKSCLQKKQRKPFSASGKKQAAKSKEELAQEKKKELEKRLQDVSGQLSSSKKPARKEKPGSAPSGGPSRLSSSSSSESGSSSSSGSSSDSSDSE

For `COC(=O)CNC(=O)Cc1csc(-c2ccc3cccc(OCCN4CCN(C(=O)C[C@@H]5N=C(c6ccc(Cl)cc6)c6c(sc(C)c6C)-n6c(C)nnc65)CC4)c3c2)n1` [SJ46420], the remaining activity at 1 µM (SK-BR-3, 4 h, read-out: BRD3 level relative to DMSO (100%), SKBR3, 1µM, 4hr, Fig S6g) was 36 ± 6.9%, the remaining activity at 5 µM (SK-BR-3, 4 h, read-out: BRD3 level relative to DMSO (100%), SKBR3, 5µM, 4hr, Fig S6g) was 13 ± 2.9% and the remaining activity at 5 µM (SK-BR-3, 4 h, read-out: BRD3 level relative to DMSO (100%), SKBR3, 5µM, 4hr, Fig S6j) was 31 ± 5.6%. It also gave a remaining activity at 1 µM (SK-BR-3, 4 h, read-out: BRD3 level, Western blot quantification (DMSO = 100), Fig S6g, SKBR3 Time course, 1 uM, 4hr) of 41.9%, a remaining activity at 5 µM (SK-BR-3, 4 h, read-out: BRD3 level, Western blot quantification (DMSO = 100), Fig S6g, SKBR3 Time course, 5 uM, 4hr) of 15.1% and a remaining activity at 1 µM (SK-BR-3, 8 h, read-out: BRD3 level relative to DMSO (100%), SKBR3, 1µM, 8hr, Fig S6g) of 32 ± 3.5%. For the same molecule, the remaining activity at 5 µM (SK-BR-3, 8 h, read-out: BRD3 level relative to DMSO (100%), SKBR3, 5µM, 8hr, Fig S6g) was 8.8 ± 2.6%, the remaining activity at 1 µM (SK-BR-3, 8 h, read-out: BRD3 level, Western blot quantification (DMSO = 100), Fig S6g, SKBR3 Time course, 1 uM, 8hr) was 35% and the remaining activity at 5 µM (SK-BR-3, 8 h, read-out: BRD3 level, Western blot quantification (DMSO = 100), Fig S6g, SKBR3 Time course, 5 uM, 8hr) was 10.6%. The remaining activity at 5 µM (SK-BR-3, read-out: BRD3 level, Western blot quantification (DMSO = 100), Fig S6i, SKBR3, 5uM) was 27.2%, the “potency relative to K2-B4-3e (more potent)” value (SKBR3 4 h, U2OS 8 h) was ~ 3 fold and 2-3 fold and the “selectivity of BRD3 over BRD4 degradation” value (“selectivity of BRD3” for short) (SKBR3, 8 hr) was ~ 5 fold. The “selectivity of BRD3” value (SKBR3, 24 hr) was ~ 1.5 fold, the “reduction of the levels of BRD3” value (SKBR3, within two hours) was ~ 70% and the “BRD3 Dmax” value (U2OS KO/Rescue, 24 h dose) was ~ 100%. The “selectivity for BRD3 over BRD2 and BRD4 (DC50)” value (U2OS KO/rescue) was ~ 2.5 fold, the “time of maximal degradation” value (U2OS cells) was 8 h and the remaining activity at 5 µM (U2OS, 2 h, read-out: BRD3 level relative to DMSO (100%), U2OS, 5µM, 2hr, Fig S6h) was 93 ± 9.8%. It also gave a remaining activity at 5 µM (U2OS, 2 h, read-out: BRD3 level, Western blot quantification (DMSO = 100), Fig S6h, U2OS Time course, 5uM, 2hr) of 91.4%, a remaining activity at 5 µM (U2OS, 4 h, read-out: BRD3 level relative to DMSO (100%), U2OS, 5µM, 4hr, Fig S6h) of 68 ± 9.8% and a remaining activity at 5 µM (U2OS, 4 h, read-out: BRD3 level, Western blot quantification (DMSO = 100), Fig S6h, U2OS Time course, 5uM, 4hr) of 71.3%. For the same molecule, the remaining activity at 5 µM (U2OS, 8 h, read-out: BRD3 level relative to DMSO (100%), U2OS, 5µM, 8hr, Fig S6i) was 41 ± 5.4%, the remaining activity at 5 µM (U2OS, 8 h, read-out: BRD3 level relative to DMSO (100%), U2OS, 5µM, 8hr, Fig S6h) was 28 ± 9.8% and the remaining activity at 5 µM (U2OS, 8 h, read-out: BRD3 level, Western blot quantification (DMSO = 100), Fig S6h, U2OS Time course, 5uM, 8hr) was 31.8%. The remaining activity at 5 µM (U2OS, 24 h, read-out: BRD3 level relative to DMSO (100%), U2OS DC2KO (KLHDC2 knockout), 5µM, 24 h, Fig 6b) was 100 ± 6.8%, the remaining activity at 0.16 µM (U2OS, 24 h, read-out: BRD3 level relative to DMSO (100%), U2OS KO/Rescue, 0.16µM, 24 h, Fig S6d) was 85 ± 13% and the remaining activity at 0.31 µM (U2OS, 24 h, read-out: BRD3 level relative to DMSO (100%), U2OS KO/Rescue, 0.31µM, 24 h, Fig S6d) was 65 ± 14%. The remaining activity at 0.63 µM (U2OS, 24 h, read-out: BRD3 level relative to DMSO (100%), U2OS KO/Rescue, 0.63µM, 24 h, Fig S6d) was 39 ± 8.5%, the remaining activity at 1 µM (U2OS, 24 h, read-out: BRD3 level relative to DMSO (100%), U2OS KO/Rescue, 1µM + co-dosing 1µM MLN4924, 24 h, Fig 6d) was 120 ± 1.5% and the remaining activity at 1 µM (U2OS, 24 h, read-out: BRD3 level relative to DMSO (100%), U2OS KO/Rescue, 1µM, 24 h, Fig 6c) was 45 ± 3.6%. For the same molecule, the remaining activity at 1 µM (U2OS, 24 h, read-out: BRD3 level relative to DMSO (100%), U2OS KO/Rescue, 1µM, 24 h, Fig 6d) was 25 ± 8.2%, the remaining activity at 1.3 µM (U2OS, 24 h, read-out: BRD3 level relative to DMSO (100%), U2OS KO/Rescue, 1.3µM, 24 h, Fig S6d) was 12 ± 1.8% and the remaining activity at 2.5 µM (U2OS, 24 h, read-out: BRD3 level relative to DMSO (100%), U2OS KO/Rescue, 2.5µM, 24 h, Fig S6d) was 0.77 ± 0.16%. The remaining activity at 5 µM (U2OS, 24 h, read-out: BRD3 level relative to DMSO (100%), U2OS KO/Rescue, 5µM, 24 h, Fig S6d) was 0.34 ± 0.11%, the remaining activity at 5 µM (U2OS, 24 h, read-out: BRD3 level relative to DMSO (100%), U2OS, 5µM, 24 h, Fig 6b) was 30.9 ± 4.1% and the remaining activity at 5 µM (U2OS, 24 h, read-out: BRD3 level relative to DMSO (100%), U2OS, 5µM, 24hr, Fig S6h) was 41 ± 9.8%. The remaining activity at 5 µM (U2OS, 24 h, read-out: BRD3 level, Western blot quantification (DMSO = 100), Fig S6h, U2OS Time course, 5uM, 24hr) was 43.5%, the “selectivity of BRD3” value (U2OS, 24 hr) was ~ 1.4 fold and the remaining activity at 1.59176 µM (U2OS, read-out: BRD3 (DMSO = 100), U2OS KO/Rescue cells, Log SJ46420 (uM) 1.59176, Rep1, Rep2) was 95%. It also gave a remaining activity at 2.49485 µM (U2OS, read-out: BRD3 (DMSO = 100), U2OS KO/Rescue cells, Log SJ46420 (uM) 2.49485, Rep1, Rep2) of 47.6%, a remaining activity at 2.79588 µM (U2OS, read-out: BRD3 (DMSO = 100), U2OS KO/Rescue cells, Log SJ46420 (uM) 2.79588, Rep1, Rep2) of 11.4% and a remaining activity at 3.09691 µM (U2OS, read-out: BRD3 (DMSO = 100), U2OS KO/Rescue cells, Log SJ46420 (uM) 3.09691, Rep1, Rep2) of 0.66%. It also gave a remaining activity at 3.39794 µM (U2OS, read-out: BRD3 (DMSO = 100), U2OS KO/Rescue cells, Log SJ46420 (uM) 3.39794, Rep1, Rep2) of 0.34%, a remaining activity at 3.69897 µM (U2OS, read-out: BRD3 (DMSO = 100), U2OS KO/Rescue cells, Log SJ46420 (uM) 3.69897, Rep1, Rep2) of 0.161% and a Dmax (U2OS, read-out: BRD3 Dmax, U2OS KO/Rescue, 24 h dose) of 99.9%. It also gave a remaining activity at 5 µM (U2OS, read-out: BRD3 level, Western blot quantification (DMSO = 100), Fig 6b, U2OS, 5 uM) of 33.9%, a remaining activity at 5 µM (U2OS, read-out: BRD3 level, Western blot quantification (DMSO = 100), Fig S6i, U2OS, 5uM) of 52.9% and a remaining activity at 0.156 µM (U2OS, read-out: BRD3 level, Western blot quantification (DMSO = 100), Fig S6d, U2OS KO/rescue Dose Response, 0.156 uM) of 108%. For the same molecule, the remaining activity at 0.313 µM (U2OS, read-out: BRD3 level, Western blot quantification (DMSO = 100), Fig S6d, U2OS KO/rescue Dose Response, 0.313 uM) was 70.7%, the remaining activity at 0.625 µM (U2OS, read-out: BRD3 level, Western blot quantification (DMSO = 100), Fig S6d, U2OS KO/rescue Dose Response, 0.625 uM) was 29.3% and the remaining activity at 1.25 µM (U2OS, read-out: BRD3 level, Western blot quantification (DMSO = 100), Fig S6d, U2OS KO/rescue Dose Response, 1.25 uM) was 11.3%. The remaining activity at 2.5 µM (U2OS, read-out: BRD3 level, Western blot quantification (DMSO = 100), Fig S6d, U2OS KO/rescue Dose Response, 2.5 uM) was 5.44%, the stability in cells (from time-course of BRD3 levels between 8 h and 24 h) was “relatively unstable” and the DC50 (read-out: BRD3 DC50, 22Rv1, 24 h dose) was 458 nM.
